Experimental data: patent EP0790237B1, “BICYCLOLACTAM COMPOUNDS, USE OF THE SAME AND INTERMEDIATE IN THE PRODUCTION OF THE SAME” (TAIHO PHARMACEUTICAL CO., LTD., priority 1995, dated 1996)

Assays:
[1] = test system: Wistar rats; assay: Anticonflict test (water drinking behavior under electroshock); assay type: in vivo; details: oral; for Relieving rate of anxiety: one hour before experiment, male Wistar rats; for anxiolytic effect (in words): dose of 1.0 mg/kg
Procedure: Wistar rats (males weighing 140 to 160 g) were used for experiment in groups of 11 to 14.
Compound 1'a-1, 1'a-5, 1'b-1, 1'''-8, 1'''-9, the above comparison compound, diazepam or buspirone was suspended in a 0.5 % sodium carboxymethyl cellulose solution, and the suspension was orally given to the animal in a volume of 5 ml/kg one hour before the start of experiment.
With reference to a method described in "Process in Anxiolytics and Antidepressants," edited by Showa Ueki and Tatsuo Furukawa, Ishiyaku Shuppansha, 56∼ 59 (1981), the agents were tested using experimental boxes having grid floor and a metal drinking tube in the floor. No water was supplied to the rats for 48 hours before the experiment. Upon lapse of first 24 hours, each group of rats were placed into the experimental box, permitted access to water for 30 seconds and caused to recognize the metal drinking tube. Upon lapse of further 24 hours with access to water prevented, the rats were placed into the box again and permitted access to water on condition that an electric current was passed between the metal drinking tube and the grid to give an electroshock for every 20 times of water drinking behavior to measure the frequency of water drinking behavior for 3 minutes. Anxiolytic effect was evaluated as relieving rate of anxiety as calculated by the following equation. Relieving rate of anxiety = (C-B)/(A-B) × 100 [formula] • A: Frequency of water drinking behavior of a control group without an electroshock and no anxiety (frequency under no punishment) • B: Frequency of water drinking behavior of a group with an electroshock and anxiety (under punishment) and having been administerd a solvent containing no test compound (frequency under solvent-control group) • C: Frequency of water drinking behavior of a group having been administered a test compound and relieved anxiety (frequency under test compound-administered group) Table 7

[2] = test system: ddY mice; assay: Acute toxicity test; assay type: in vivo; details: oral, 6 male ddY mice, observed for 3 days
Source text: Five-week-old male ddY mice were used in groups of 6. […]

[3] = test system: ddY mice; details: mouse, in vivo, po, 300 mg/kg
Procedure: (§1) Compound 1'a-1, the comparison compound, diazepam or buspirone was suspended in a 0.5 % sodium carboxymethyl cellulose solution, and the suspension was orally administered to 3- to 4-week-old male ddY mice (in groups of 5) in a volume of 10 ml/kg one hour before the start of experiment.
The test was conducted with reference to a method described in "Evaluation of Medicinal Efficacies (1), Pharmacological Test Method (I ), Basic Lectures on Development of Pharmaceuticals," 50∼ 54(1971). More specifically, the group of mice were given the test drug and thereafter measured the amount of spontaneous locomotor activity for 10 minutes per mouse using Animex MK-110 (Muromachi Kikai Co., Ltd.).

[4] = test system: ddY mice; details: mouse, in vivo, po, 300 mg/kg; remark: listed apart in the source
Procedure: (§2) Compound 1'a-1, the comparison compound, diazepam or buspirone was suspended in a 0.5 % sodium carboxymethyl cellulose solution, and the suspension was orally administered to 3- to 4-week-old male ddY mice (in groups of 6) in a volume of 10 ml/kg one hour before the start of experiment.
The test was conducted with reference to a method described in Japan. J. Pharmacol., 49, 337∼ 349(1989). More specifically, the group of mice were intraperitoneally given 25 % ethanol at a dose of 20 ml/kg and checked for the time interval between loss and recovery of the righting reflex.

[5] = test system: ddY mice; assay: Anticonvulsant effect (pentylenetetrazol-induced convulsion method); assay type: in vivo; details: for anticonvulsant effect: dose of 300 mg/kg, oral, male ddY mice; for ED50: Mus musculus, po, 1 h, read-out: ED50 (anticonvulsant effect)
Procedure: as §2
The test was conducted with reference to a method described in "Evaluation of Medicinal Efficacies (1), Pharmacological Test Method (I), Basic Lectures on Development of Pharmaceuticals," 167∼ 172(1971).

[6] = test system: ddY mice; details: mouse, in vivo, po, 300 mg/kg; remark: listed apart in the source
Procedure: as §1
With reference to a method described in Japan. J. Pharmacol., 49. 337∼ 349(1989), the foreleg of the mouse was hung on a horizontal wire, having a diameter of 1.2 mm and fixed at a level of 30 cm, three times consecutively. […] Thus, ED50 was determined for evaluation.

COc1ccc(C(=O)N2C(=O)CC[C@H]3[C@H](O)CC[C@H]32)cc1 (racemic) [Compound 1'a-1, (1RS, 6RS, 7RS)-7-hydroxy-2-(4-methoxybenzoyl)-2-azabicyclo-[4.3.0]nonan-3-one]
Relieving rate of anxiety ([1]; dose 0.01 mg/kg): 93%
Relieving rate of anxiety ([1]; dose 0.1 mg/kg): 86%
Relieving rate of anxiety ([1]; dose 1.0 mg/kg): 76%
Number of death ([2]; dose 2000 mg/kg): 0
Number of death ([2]; dose 3000 mg/kg): 2
sedative effect [3]: no sedative effect
ethanol enhancing effect [4]: no ethanol enhancing effect
anticonvulsant effect [5]: no anticonvulsant effect
muscle relaxant effect [6]: no muscle relaxant effect

O=C1CC2(CCCC2)CC(=O)N1CCCCN1CCN(c2ncccn2)CC1 [Buspirone]
Relieving rate of anxiety ([1]; dose 1.0 mg/kg): 2%
anxiolytic effect (in words) [1]: almost ineffective
ED50 [5]: ≥ 300 mg/kg

O=C1CC2CCCCC2N1 (stereo not shown) [Comparison Compound, 2-azabicyclo[3.4.0]nonane-3-one]
Relieving rate of anxiety ([1]; dose 0.01 mg/kg): 43%
Relieving rate of anxiety ([1]; dose 0.1 mg/kg): 44%
Relieving rate of anxiety ([1]; dose 1.0 mg/kg): 46%
decreased anxiety ([1]; doses of 0.01 to 0.1 mg/kg): up to 50%
Number of death ([2]; dose 2000 mg/kg): 1
Number of death ([2]; dose 3000 mg/kg): 5
sedative effect [3]: no sedative effect
ethanol enhancing effect [4]: no ethanol enhancing effect
anticonvulsant effect [5]: no anticonvulsant effect
muscle relaxant effect [6]: no muscle relaxant effect

CN1C(=O)CN=C(c2ccccc2)c2cc(Cl)ccc21 [Diazepam]
Relieving rate of anxiety ([1]; dose 1.0 mg/kg): -3%
anxiolytic effect (in words) [1]: almost ineffective
ED50 [5]: 0.35 mg/kg
